# Reference: ChEMBL document CHEMBL1130023, “Conformationally constrained [p-(omega-aminoalkyl)phenacetyl]-L-seryl-L-lysyl dipeptide amides as potent peptidomimetic inhibitors of Candida albicans and human myristoyl-CoA:protein N-myristoyl transferase” (J Med Chem, 1997)
# Non-standard residues stand in square brackets, D forms with d. Residues, ends and D or L forms follow the SMILES beside them. *: point of attachment. Cha = N[C@@H](CC1CCCCC1)C(=O)O; Chg = N[C@H](C(=O)O)C1CCCCC1; NHPhenethyl = c1ccc(CCN*)cc1; 12Ado = NCCCCCCCCCCCC(=O)O; Aun = NCCCCCCCCCCC(=O)O; Ahp = NCCCCCCC(=O)O; βAla = NCCC(=O)O; Sar = CNCC(=O)O
# What was measured:
# [1] = biological target: T1, Glycylpeptide N-tetradecanoyltransferase (Candida albicans (strain SC5314 / ATCC MYA-2876) (Yeast), UniProt P30418); experiment: Inhibitory activity against N-myristoyltransferase (NMT) of candida albicans
# T1 sequence (P30418 whole entry): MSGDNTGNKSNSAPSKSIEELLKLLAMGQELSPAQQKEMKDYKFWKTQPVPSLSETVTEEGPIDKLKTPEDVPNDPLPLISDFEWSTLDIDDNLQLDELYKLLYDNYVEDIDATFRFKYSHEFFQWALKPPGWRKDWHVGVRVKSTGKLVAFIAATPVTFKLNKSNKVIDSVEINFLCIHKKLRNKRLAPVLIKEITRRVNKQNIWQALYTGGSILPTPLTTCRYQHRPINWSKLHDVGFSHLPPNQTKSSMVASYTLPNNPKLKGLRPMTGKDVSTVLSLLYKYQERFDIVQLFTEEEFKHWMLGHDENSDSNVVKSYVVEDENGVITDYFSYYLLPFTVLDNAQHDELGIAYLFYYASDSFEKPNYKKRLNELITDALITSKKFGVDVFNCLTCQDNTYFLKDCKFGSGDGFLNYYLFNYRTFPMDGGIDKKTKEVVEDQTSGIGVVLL
# [2] = Ratio of the IC50 against human NMT to the IC50 against Candida albicans NMT.
# [3] = biological target: T2, Peptide N-myristoyltransferase (Homo sapiens, UniProt P30419+O60551); experiment: Inhibition of human N-myristoyltransferase (NMT); assay type: protein assay
# T2 sequence (P30419 whole entry): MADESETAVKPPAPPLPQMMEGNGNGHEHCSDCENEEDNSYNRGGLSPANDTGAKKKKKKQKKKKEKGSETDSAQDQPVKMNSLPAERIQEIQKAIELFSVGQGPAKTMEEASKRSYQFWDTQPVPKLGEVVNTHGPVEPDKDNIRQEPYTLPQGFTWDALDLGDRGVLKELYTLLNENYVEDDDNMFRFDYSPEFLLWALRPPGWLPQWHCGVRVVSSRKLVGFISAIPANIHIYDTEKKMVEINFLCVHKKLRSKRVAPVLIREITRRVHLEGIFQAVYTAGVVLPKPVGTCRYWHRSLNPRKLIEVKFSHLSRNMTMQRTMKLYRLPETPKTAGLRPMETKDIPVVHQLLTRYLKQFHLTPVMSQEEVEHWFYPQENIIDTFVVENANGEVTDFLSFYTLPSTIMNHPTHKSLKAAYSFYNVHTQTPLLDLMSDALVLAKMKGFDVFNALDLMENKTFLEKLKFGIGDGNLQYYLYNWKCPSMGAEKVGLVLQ
# T2 sequence (O60551 whole entry): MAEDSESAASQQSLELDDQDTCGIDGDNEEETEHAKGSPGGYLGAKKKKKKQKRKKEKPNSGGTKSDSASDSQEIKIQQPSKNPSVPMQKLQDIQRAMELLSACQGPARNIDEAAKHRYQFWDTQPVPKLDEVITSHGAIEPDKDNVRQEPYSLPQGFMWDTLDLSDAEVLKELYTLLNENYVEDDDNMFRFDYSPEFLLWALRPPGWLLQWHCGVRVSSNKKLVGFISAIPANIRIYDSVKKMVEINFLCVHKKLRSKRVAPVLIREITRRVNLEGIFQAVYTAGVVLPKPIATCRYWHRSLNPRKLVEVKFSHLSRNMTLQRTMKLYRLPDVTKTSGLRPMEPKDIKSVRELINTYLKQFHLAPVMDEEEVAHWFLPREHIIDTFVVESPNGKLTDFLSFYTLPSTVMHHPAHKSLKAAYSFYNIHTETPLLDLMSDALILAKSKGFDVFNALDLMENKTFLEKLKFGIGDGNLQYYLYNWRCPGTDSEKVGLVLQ
# [4] = biological target: T2, Peptide N-myristoyltransferase; experiment: The binding affinity was evaluated against the acyl transferase's peptide, N-myristoyltransferase binding site; assay type: protein assay
# [5] = biological target: Glycylpeptide N-tetradecanoyltransferase (Candida albicans) (UniProt P30418); experiment: The binding affinity was evaluated towards N-myristoyltransferase (NMT) in the presence of the peptide substrate GNAASARR-NH2
Compound,IC50 [1],further results
NCCCCCCCCCCC(=O)N[C@@H](CO)C(=O)N[C@@H](CCCCN)C(=O)N[C@@H](Cc1ccccc1)C(N)=O (H-[Aun]SKF-NH2),8.2 µM,–
NCCCCCc1cccc(CC(=O)N[C@@H](CO)C(=O)N[C@@H](CCCCN)C(=O)NCCC2CCCCC2)c1,0.52 µM,Ratio [2]: 3.5; IC50 [3]: 1.8 µM
NCCCC[C@H](NC(=O)[C@H](CO)NC(=O)CCCCCCc1ccc(CN)cc1)C(=O)NCCC1CCCCC1,0.34 µM,Ratio [2]: 4.4; IC50 [3]: 1.5 µM
NCCCCCCCCc1ccc(CC(=O)N[C@@H](CO)C(=O)N[C@@H](CCCCN)C(=O)NCCC2CCCCC2)cc1,0.75 µM,Ratio [2]: 70; IC50 [3]: 53 µM
CC(C)CCNC(=O)[C@@H](CCCCN)NC(=O)[C@@H](CO)NC(=O)CCCCCCCCCCN,365 µM,–
CC(C)[C@H](NC(=O)[C@H](CCCCN)NC(=O)[C@H](CO)NC(=O)CCCCCCCCCCN)C(N)=O (H-[Aun]SKV-NH2),19 µM,–
H-ALYASKLS-NH2,–,Ki app [4]: 15.3 µM
NCCCCCCCCCCC(=O)N[C@@H](CO)C(=O)N[C@@H](CCCCN)C(=O)NCCc1ccccc1 (H-[Aun]-Ser-Lys-NHPhenethyl),5 µM,–
CC(C)CNC(=O)[C@H](CCCCN)NC(=O)[C@H](CO)NC(=O)CCCCCCCCCCN,> 10 µM,–
NCCCCCCCCCCC(=O)N[C@@H](CO)C(=O)N[C@@H](CCCCN)C(=O)NCC(N)=O (H-[Aun]SKG-NH2),16 µM,–
C[C@H](NC(=O)[C@H](CCCCN)NC(=O)[C@H](CO)NC(=O)CCCCCCCCCCN)C(N)=O (H-[Aun]SKA-NH2),16 µM,–
NCCCCCCCCCCC(=O)N[C@@H](CO)C(=O)N[C@@H](CCCCN)C(=O)NCCCC1CCCCC1,1.3 µM,–
CC(C)C[C@H](NC(=O)CCN)C(=O)N[C@@H](Cc1ccc(O)cc1)C(=O)N[C@@H](C)C(=O)N[C@@H](CO)C(=O)N[C@@H](CCCCN)C(=O)N[C@@H](CC(C)C)C(=O)N[C@@H](CO)C(N)=O (H-[βAla]LYASKLS-NH2),110 µM,–
NCCCCCCc1ccc(CC(=O)N[C@@H](CO)C(=O)N[C@@H](CCCCN)C(=O)NCCC2CCCCC2)cc1,0.11 µM,Ki [5]: 0.06 µM; Ratio [2]: 7.3; IC50 [3]: 0.8 µM
NCCCC[C@H](NC(=O)[C@H](CO)NC(=O)Cc1ccc(CCc2ccc(CN)cc2)cc1)C(=O)NCCC1CCCCC1,0.75 µM,Ratio [2]: 83; IC50 [3]: 62 µM
CC[C@H](C)[C@H](NC(=O)[C@H](CCCCN)NC(=O)[C@H](CO)NC(=O)CCCCCCCCCCN)C(N)=O (H-[Aun]SKI-NH2),3.9 µM,–
NCCCCCc1ccc(CC(=O)N[C@@H](CO)C(=O)N[C@@H](CCCCN)C(=O)NCCC2CCCCC2)cc1,0.19 µM,Ratio [2]: 5.2; IC50 [3]: 0.99 µM
COC(=O)[C@H](CC(C)C)NC(=O)[C@H](CCCCN)NC(=O)[C@H](CO)NC(=O)CCCCCCCCCCCN (H-[12Ado]SKL-OMe),0.27 µM,–

Compound,IC50 [1],further results
CC(C)CCNC(=O)[C@H](CCCCN)NC(=O)[C@H](CO)NC(=O)CCCCCCCCCCN,0.78 µM,Ratio [2]: 0.5
CNCCCCCCCCCCC(=O)N[C@@H](CO)C(=O)N[C@@H](CCCCN)C(=O)N[C@@H](CC(C)C)C(=O)OC,0.35 µM,–
CNCC(=O)N[C@@H](CC(C)C)C(=O)N[C@@H](Cc1ccc(O)cc1)C(=O)N(C)CC(=O)N[C@@H](CO)C(=O)N[C@@H](CCCCN)C(=O)N[C@@H](CC(C)C)C(=O)N[C@@H](CO)C(N)=O (H-[Sar]LY[Sar]SKLS-NH2),80 µM,–
NCCCCCCCCCCC(=O)N[C@@H](CO)C(=O)N[C@@H](CCCCN)C(=O)N[C@H](C(N)=O)C1CCCCC1 (H-[Aun]SK[Chg]-NH2),0.76 µM,–
CC(C)C[C@H](NC(=O)[C@H](CCCCN)NC(=O)[C@H](CO)NC(=O)CCCCCCCCCCN)C(N)=O (stereo in doubt),> 1000 µM,–
COC(=O)[C@H](CC(C)C)NC(=O)[C@H](CCCCN)NC(=O)[C@H](CO)NC(=O)CCCCCCCCN,5.2 µM,–
COC(=O)[C@H](CC(C)C)NC(=O)[C@H](CCCCN)NC(=O)[C@H](CO)NC(=O)CCCCCCN (H-[Ahp]SKL-OMe),> 100 µM,–
NCCCC[C@H](NC(=O)[C@H](CO)NC(=O)CCCCC#Cc1ccc(CN)cc1)C(=O)NCCC1CCCCC1,0.17 µM,Ratio [2]: 4.5; IC50 [3]: 0.76 µM
COC(=O)[C@H](CC(C)C)NC(=O)[C@H](CCCCN)NC(=O)[C@H](CO)NC(=O)CCCCCCCCCN,0.3 µM,–
CC(C(=O)N[C@@H](CO)C(=O)N[C@@H](CCCCN)C(=O)NCCC1CCCCC1)c1ccc(CCCCCCN)cc1 (stereo not given in full),0.043 µM,Ratio [2]: 18; IC50 [3]: 0.79 µM
NCCCCCCCCCCC(=O)N[C@@H](CO)C(=O)N[C@@H](CCCCN)C(=O)N[C@@H](CC1CCCCC1)C(N)=O (H-[Aun]SK[Cha]-NH2),0.36 µM,–
CC(C)C[C@H](NC(=O)[C@H](CCCCN)NC(=O)[C@H](CO)NC(=O)CCCCCCCCCCN)C(N)=O (stereo in doubt; 3a),1.2 µM,–
CC(C)(C)CCNC(=O)[C@H](CCCCN)NC(=O)[C@H](CO)NC(=O)CCCCCCCCCCN,1.2 µM,–
COC(=O)[C@H](CC(C)C)NC(=O)[C@H](CCCCN)NC(=O)[C@H](CO)NC(=O)CCCCCCCCCCN(C)C,0.69 µM,–
NCCCCCCCCCCC(=O)N[C@@H](CO)C(=O)N[C@@H](CCCCN)C(=O)NCCCC1CCCCCCC1,0.3 µM,Ratio [2]: 3.8; IC50 [3]: 1.14 µM
NCCCC[C@H](NC(=O)[C@H](CO)NC(=O)Cc1ccc(C#Cc2ccc(CN)cc2)cc1)C(=O)NCCC1CCCCC1,> 10 µM,–
COC(=O)[C@H](CC(C)C)NC(=O)[C@H](CCCCN)NC(=O)[C@H](CO)NC(=O)CCCCCCCCCCN (H-[Aun]SKL-OMe),0.6 µM,–
